This test deals with T1, MCAK (Kinesin-like protein KIF2C/MCAK) (Homo sapiens, UniProt Q99661).
T1 sequence (Q99661 2-725): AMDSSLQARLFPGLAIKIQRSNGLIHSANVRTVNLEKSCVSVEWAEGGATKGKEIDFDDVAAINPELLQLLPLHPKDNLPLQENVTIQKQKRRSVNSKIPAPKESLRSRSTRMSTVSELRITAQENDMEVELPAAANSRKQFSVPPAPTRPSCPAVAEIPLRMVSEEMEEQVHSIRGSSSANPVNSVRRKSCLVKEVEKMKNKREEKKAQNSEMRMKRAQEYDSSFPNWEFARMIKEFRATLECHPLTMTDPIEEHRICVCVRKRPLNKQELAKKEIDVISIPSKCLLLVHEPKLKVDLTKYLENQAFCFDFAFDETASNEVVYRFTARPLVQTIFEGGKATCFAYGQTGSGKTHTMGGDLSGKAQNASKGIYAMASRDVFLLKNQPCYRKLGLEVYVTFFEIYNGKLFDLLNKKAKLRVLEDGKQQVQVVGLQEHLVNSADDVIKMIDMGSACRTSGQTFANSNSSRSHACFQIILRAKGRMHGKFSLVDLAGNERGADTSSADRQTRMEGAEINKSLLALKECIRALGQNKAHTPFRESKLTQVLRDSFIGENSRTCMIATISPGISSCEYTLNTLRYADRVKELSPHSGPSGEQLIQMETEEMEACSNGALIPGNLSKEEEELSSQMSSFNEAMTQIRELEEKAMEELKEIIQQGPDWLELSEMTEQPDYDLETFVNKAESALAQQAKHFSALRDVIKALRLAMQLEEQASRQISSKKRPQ
Description: displacement of MCAK from immobilized ligand […], Western blot. The test is classed as biochemical. The settings on record: MgATP in NP-40 lysis buffer, 15 min. (In general: In western blotting, separated proteins are transferred to a membrane and probed.)

Structures are written as SMILES.

On to `Nc1ncnc2c1ncn2[C@@H]1O[C@H](COP(=O)(O)OP(=O)(O)OP(=O)(O)O)[C@@H](O)[C@H]1O` [ATP], for which the “displacement of MCAK from immobilized ligand 3, Western blot” value was “MCAK binding to the immobilized drug could be inhibited by increasing concentrations of ATP”.

These data come from publication PMC3755495 (Biochemical pharmacology, 2013).
